Here are results for three compounds from PMC10747339 (Pharmaceutics, 2023).

As a reminder, the solubility is the dissolved amount per volume that the medium holds. The pKa is the pH at which an ionisable group is half protonated.

The nature of series [1]: Phase solubility studies with cyclodextrins (Higuchi and Connors), complexation efficiency (Loftsson). The format is physicochemical. The settings on record: phosphate buffer; for complexation efficiency (CE), range over the media: citrate buffer, WFI. As to the method:
Cyclodextrins solutions (from 26 mM to 264 mM) were prepared within sodium citrate (50 mM, pH 3) and sodium phosphate (80 mM, pH 2.7) buffer solutions and WFI. […] Aliquots were drawn from these suspensions and filtered through a Pall Life Science (Cortland, NY, USA) 0.45 µm filter with a Versapore acrylic copolymer membrane before quantification. The pH of these suspensions was checked before filtration.
(§1) Quantification of mefloquine was performed using a Shimadzu® Nexera® high-performance liquid chromatography system (Kyoto, Japan). One microliter of samples was eluted on a 150 mm × 2.1 mm 1.7 µm octadodecyl Acquity® column (Waters, Milford, CT, USA) at 40 °C using an isocratic ammonia buffer(120 mM, pH 10):acetonitrile:methanol (40:40:20, v/v/v) mobile phase at a 1 mL/min flow rate. The samples were diluted to 1/10th with the mobile phase before injection. Quantification was performed at 283 nm with daily made calibration curves. This method was linear for concentrations ranging from 10 to 5000 mg/L. The limit of quantification was estimated at […] and the repeatability and intermediate fidelity were good (coefficient of variation < 5%) for concentrations ranging from 50 to 5000 mg/L.
Complexation efficiencies (CE) were determined from the phase solubility studies using the Loftsson method. CE = (D/CD)/(CD) = Slope/(1 − Slope) where (D/CD) is the concentration of dissolved complex; (CD) is the concentration of dissolved free CD, and Slope is the slope of the phase-solubility profile.

A short description of series [2]: 19F NMR titration, association constant by 1:1 isotherm fit. The format is physicochemical. To be noted: D2O, 300 K, total 5 mM. The method, then: The stoichiometry of the complex was determined using Job’s method. […] The total molar concentration and the total volume were kept constant at 5 mM and 500 µL, respectively, and the molar ratio of each component was varied from 0 to 1. Corresponding ^19F NMR spectra were recorded. The observation of chemical shifts varying in a linear fashion with the concentrations of bound species was obtained and affords the corresponding Job plots as described elsewhere.
^19F NMR Titrations: the same experimental data set of Job plot titrations was used. The association constants were obtained by fitting a 1:1 isotherm according to the programs available at http://app.supramolecular.org/bindfit/ (accessed on 19 October 2023).

Series [3] in a line: Solubility of mefloquine hydrochloride in buffer solutions and water for injection. The format is physicochemical. The settings on record: for solubility at 24 h: thermodynamic from solid. As to the method: These suspensions were sonicated for 1 h and stirred for 24 h at 24 °C and protected from the light. Aliquots were drawn from these suspensions and filtered through a Pall Life Science (Cortland, NY, USA) 0.45 µm filter with a Versapore acrylic copolymer membrane before quantification. The pH of these suspensions was checked before filtration.
as §1

For series [4] the following is noted: piperidine's basicity; cited from earlier work.
Series [5] can be described thus: Photostability study (ICH), HPLC content. The settings on record: 168 days; for change in mefloquine content: 25 °C, 60% RH, 7500 Lux and 1.1 W/m^2; for color change: light exposure. The format is physicochemical. As to the method: The solutions were stored in type 1 glass vials (n = 3 for each solution) sealed with a rubber septum. […] Photostability studies were conducted using the Binder KBF P240 climatic chamber (Tuttligen, Germany), equipped with UVA and visible illumination sources set at 7500 Lux and 1.1 W/m^2. The chamber was maintained at a temperature of 25 ± 2 °C and a relative humidity of 60 ± 5% during the 6-months study.
The method was adapted using pharmacopeia recommendations for utilization with the Phenomenex® Kinetex® 2.6 µm, 150 × 2.1 mm column (Torrance, CA, USA), featuring the same octadecyl stationary phase with a smaller particle size. By employing this column, the flow rate was optimized at 0.4 mL/min.

Another series concerns p-Gp. To be noted: cited from earlier work.
The conditions of series [6]: hydrochloride salt, cited from earlier work.
Another series has as its system caco-2. Set-up: method as in PMID 27045516. To be noted: cited from earlier work.

Counter-ions that a name gives are not always drawn. Like-named read-outs stand apart in the source and are kept apart here.

Turning to `CC(O)COC[C@H]1O[C@@H]2O[C@H]3[C@H](O)[C@@H](O)[C@@H](O[C@H]4[C@H](O)[C@@H](O)[C@@H](O[C@H]5[C@H](O)[C@@H](O)[C@@H](O[C@H]6[C@H](O)[C@@H](O)[C@@H](O[C@H]7[C@H](O)[C@@H](O)[C@@H](O[C@H]8[C@H](O)[C@@H](O)[C@@H](O[C@H]1[C@H](O)[C@H]2O)O[C@@H]8COCC(C)O)O[C@@H]7COCC(C)O)O[C@@H]6COCC(C)O)O[C@@H]5COCC(C)O)O[C@@H]4COCC(C)O)O[C@@H]3COCC(C)O` (stereo partly drawn) [HP-β-CD, hydroxypropyl-β-cyclodextrin], the “complexation efficiency (CE), range over the media” value in series [1] was 0.1–0.13. Besides, the “average association constant (K1:1)” value in series [2] turned out to be 140.5 M⁻¹.

Regarding `OC(c1cc(C(F)(F)F)nc2c(C(F)(F)F)cccc12)C1CCCCN1` (stereo not drawn) [mefloquine, mefloquine hydrochloride], the solubility at 24 h in series [3] (aqueous buffer, citrate buffer, pH 2.7, 24 °C) amounted to 640 µg/mL; in series [3] (aqueous buffer, phosphate buffer, pH 2.6, 24 °C) it was 4810 µg/mL; in series [3] (aqueous buffer, phosphate buffer, pH 6.5, 24 °C) it was 780 µg/mL; in series [3] (water for injection (purified water), purified water, final pH 4.6, 24 °C), 4120 µg/mL. Further, in series [3] (same pH value), the “change in solubility, citrate buffer compared to phosphate buffer” value is listed as “eight-fold decrease”. Also, the “solubility compared with previously reported” value in series [3] (versus ref 4) was “two-fold higher”. Moreover, the pKa in series [4] is given as 8.6. Also, the “change in mefloquine content” value in series [5] (10 mg/mL in 200 mM RAMEB solution) and in series [5] (10 mg/mL in acetonitrile:water (50:50)) was “No substantial change” each time. Further, the color change entry in series [5] (RAMEB solution) and in series [5] (acetonitrile:water (50:50) solution) was “No color change” throughout. Further, the “additional peaks (degradation products) in chromatograms” value in series [5] (both solutions) was “did not reveal any additional peak appearances”. Also, the p-Gp inhibition entry in the series with p-Gp is reported as “moderate”. In addition, the solubility in series [6] (acetate buffer, pH 4.5, 37 °C) was 1950 µg/mL; in series [6] (water, pH 6.5, 37 °C) it was 1806 µg/mL. In the series on caco-2, the permeability entry was “around 9 × 10^−6 cm/s”.

For “randomly methylated β-cyclodextrin [RAMEB]”, in series [1], the “complexation efficiency (CE), range over the media” value was 0.31–0.38 and the “equivalents of cyclodextrin to achieve target concentration of 26.5 mM (10 mg/mL) mefloquine” value is given as “approximately two”. Also, the “average association constant (K1:1)” value in series [2] came to 333.4 M⁻¹.
